Source: ChEMBL document CHEMBL1146036, “Structural determinants of opioid activity in derivatives of 14-aminomorphinones: effect of substitution in the aromatic ring of cinnamoylaminomorphinones and codeinones” (J Med Chem, 2006)

Legend:
[1] = molecular target: T1, Mu-type opioid receptor (Homo sapiens, UniProt P35372); assay: Displacement of [3H]DAMGO from human recombinant MOR expressed in CHO cells; format: cell-based
[2] = molecular target: T2, Delta-type opioid receptor (Homo sapiens, UniProt P41143); assay: Displacement of [3H]Cl-DPDPE from human recombinant DOR expressed in CHO cells; format: cell-based
T2 sequence (P41143 whole entry): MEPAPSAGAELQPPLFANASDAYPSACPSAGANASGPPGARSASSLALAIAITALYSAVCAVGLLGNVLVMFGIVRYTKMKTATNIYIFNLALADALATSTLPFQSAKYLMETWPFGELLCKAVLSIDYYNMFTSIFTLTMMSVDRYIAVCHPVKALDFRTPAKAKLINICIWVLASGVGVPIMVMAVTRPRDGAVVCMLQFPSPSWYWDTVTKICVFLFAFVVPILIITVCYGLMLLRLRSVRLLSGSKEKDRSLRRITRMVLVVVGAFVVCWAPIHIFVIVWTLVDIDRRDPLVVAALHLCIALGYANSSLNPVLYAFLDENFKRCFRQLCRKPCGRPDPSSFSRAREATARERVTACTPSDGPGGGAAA

[3] = molecular target: T3, Kappa-type opioid receptor (Homo sapiens, UniProt P41145); assay: biochemical; format: cell-based, CHO
T3 sequence (P41145 whole entry): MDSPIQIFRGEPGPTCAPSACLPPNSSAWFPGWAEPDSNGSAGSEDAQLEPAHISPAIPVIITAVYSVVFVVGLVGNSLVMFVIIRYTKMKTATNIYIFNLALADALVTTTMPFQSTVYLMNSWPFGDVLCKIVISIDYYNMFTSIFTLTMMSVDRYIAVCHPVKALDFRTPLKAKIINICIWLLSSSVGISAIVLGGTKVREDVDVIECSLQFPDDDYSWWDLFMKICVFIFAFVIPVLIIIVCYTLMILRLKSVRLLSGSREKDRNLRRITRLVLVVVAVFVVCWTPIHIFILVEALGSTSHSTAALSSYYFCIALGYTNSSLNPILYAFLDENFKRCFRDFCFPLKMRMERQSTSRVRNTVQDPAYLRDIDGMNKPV
Description: Displacement of [3H]U-69593 from human recombinant KOR expressed in CHO cells

[4] = molecular target: T1, Mu-type opioid receptor; assay: Reversal of stimulation of [35S]GTP-gamma-S binding to human recombinant MOR transfected in CHO cells relative to DAMGO; format: functional, cell-based
[5] = test system: Mus musculus; assay: Agonist activity in sc dosed mouse by tail flick assay; format: functional
[6] = test system: Mus musculus; assay: Agonist activity in sc dosed mouse by phenylquinone abdominal stretching assay; format: functional; conditions: Abdomen
[7] = test system: Mus musculus; assay: Antagonist activity against morphine-induced antinociception in sc dosed mouse by tail flick assay at 3 mg/kg, sc; format: functional; conditions: route subcutaneous
[8] = test system: Mus musculus; assay: Agonist activity in mouse by hot water tail withdrawal assay at 32 mg/kg, sc; format: functional; conditions: route subcutaneous
[9] = test system: Mus musculus; assay: Antagonist activity against morphine-induced antinociception in sc dosed mouse by hot water tail withdrawal assay at 32 mg/kg, sc; format: functional; set-up: scale not given: the % may be the effect or the level left; conditions: route subcutaneous
[10] = molecular target: T2, Delta-type opioid receptor; conditions: CHO
Description: Reversal of stimulation of [35S]GTP-gamma-S binding to human recombinant DOR transfected in CHO cells relative to DPDPE

[11] = molecular target: T3, Kappa-type opioid receptor; conditions: CHO
Description: Reversal of stimulation of [35S]GTPgammaS binding to human recombinant KOR transfected in CHO cells relative to U69593

[12] = molecular target: T1, Mu-type opioid receptor; assay: Activity at human recombinant MOR transfected in CHO cells assessed as reversal of stimulation of [35S]GTP-gamma-S binding; format: functional, cell-based; conditions: filed as antagonist
[13] = molecular target: T2, Delta-type opioid receptor; assay: Activity at human recombinant DOR transfected in CHO cells assessed as reversal of stimulation of [35S]GTP-gamma-S binding; format: functional, cell-based
[14] = molecular target: T3, Kappa-type opioid receptor; assay: Activity at human recombinant KOR transfected in CHO cells assessed as reversal of stimulation of [35S]GTPgammaS binding; format: functional, cell-based; conditions: filed as antagonist
[15] = test system: Mus musculus; assay: Agonist activity in mouse by phenylquinone abdominal stretching assay at 1 mg/kg, sc; format: functional; conditions: Abdomen, route subcutaneous
[16] = test system: Mus musculus; assay: Antagonist activity against morphine-induced antinociception in sc dosed mouse by tail flick assay; format: functional
[17] = test system: Mus musculus; assay: Agonist activity in mouse by phenylquinone abdominal stretching assay at 30 mg/kg, sc; format: functional; conditions: Abdomen, route subcutaneous
[18] = test system: Mus musculus; assay: Agonist activity in mouse by phenylquinone abdominal stretching assay at 0.3 mg/kg, sc; format: functional; conditions: Abdomen, route subcutaneous
[19] = test system: Mus musculus; assay: Agonist activity in sc dosed mouse by hot water tail withdrawal assay at 10 mg/kg, sc; format: functional; conditions: route subcutaneous
[20] = molecular target: T1, Mu-type opioid receptor; assay: Stimulation of [35S]GTPgammaS binding to human recombinant MOR; format: functional
[21] = molecular target: T2, Delta-type opioid receptor; assay: Stimulation of [35S]GTP-gamma-S binding to human recombinant DOR; format: functional
[22] = molecular target: T2, Delta-type opioid receptor; assay: Stimulation of [35S]GTPgammaS binding to human recombinant DOR relative to DPDPE; format: functional
[23] = molecular target: T3, Kappa-type opioid receptor; assay: Stimulation of [35S]GTP-gamma-S binding to human recombinant KOR; format: functional
[24] = molecular target: Mu-type opioid receptor (Cavia porcellus, UniProt P97266); assay: Binding affinity to MOR in guinea pig brain membrane; format: cell membranes
Sequence of Mu-type opioid receptor (Cavia porcellus, UniProt P97266) (P97266 whole entry): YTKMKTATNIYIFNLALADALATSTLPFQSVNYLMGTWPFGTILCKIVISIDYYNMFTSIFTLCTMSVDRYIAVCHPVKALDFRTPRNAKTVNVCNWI

[25] = molecular target: Kappa-type opioid receptor (Cavia porcellus, UniProt P41144); assay: Binding affinity to KOR in guinea pig brain membrane; format: cell membranes
Sequence of Kappa-type opioid receptor (Cavia porcellus, UniProt P41144) (P41144 whole entry): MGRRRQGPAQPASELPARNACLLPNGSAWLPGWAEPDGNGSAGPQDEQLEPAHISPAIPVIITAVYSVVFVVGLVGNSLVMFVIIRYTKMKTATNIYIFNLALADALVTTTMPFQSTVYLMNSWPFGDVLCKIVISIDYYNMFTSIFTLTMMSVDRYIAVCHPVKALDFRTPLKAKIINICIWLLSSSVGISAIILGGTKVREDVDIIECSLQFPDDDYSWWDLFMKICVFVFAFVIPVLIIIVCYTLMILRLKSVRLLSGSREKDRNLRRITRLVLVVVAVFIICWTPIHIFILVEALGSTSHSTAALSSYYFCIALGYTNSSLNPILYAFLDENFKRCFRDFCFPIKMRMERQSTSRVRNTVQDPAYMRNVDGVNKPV

[26] = test system: Mus musculus; assay: Agonist activity in sc dosed mouse by hot water tail withdrawal assay at 1 mg/kg, sc; format: functional; conditions: route subcutaneous

T1 sequence (P35372 whole entry): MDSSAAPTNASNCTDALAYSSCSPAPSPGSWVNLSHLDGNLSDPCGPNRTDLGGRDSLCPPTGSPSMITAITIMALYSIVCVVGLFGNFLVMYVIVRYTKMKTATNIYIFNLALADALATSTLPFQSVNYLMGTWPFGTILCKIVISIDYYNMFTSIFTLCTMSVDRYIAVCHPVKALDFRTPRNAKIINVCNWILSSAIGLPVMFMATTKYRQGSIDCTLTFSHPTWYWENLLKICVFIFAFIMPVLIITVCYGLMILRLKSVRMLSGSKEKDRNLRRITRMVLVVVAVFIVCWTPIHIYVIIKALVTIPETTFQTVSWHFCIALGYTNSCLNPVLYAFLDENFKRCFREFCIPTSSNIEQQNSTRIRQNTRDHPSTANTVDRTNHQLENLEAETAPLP

Cc1ccccc1/C=C/C(=O)N[C@@]12CCC(=O)[C@@H]3Oc4c(O)ccc5c4[C@@]31CCN(CC1CC1)[C@@H]2C5
Ki [1]: 0.72 nM | Ki [2]: 1.25 nM | Ki [3]: 1.5 nM | Ke [4]: 0.29 nM | ED50 [5]: > 30 mg/kg | ED50 [6]: 3.17 mg/kg | inhibition in vivo at 3 mg/kg [7]: 50% | Activity [8]: 0% | Activity [9]: 65% | Ke [10]: 0.4 nM | Ke [11]: 0.16 nM

Cc1ccc(/C=C/C(=O)N[C@@]23CCC(=O)[C@@H]4Oc5c(O)ccc6c5[C@@]42CCN(C)[C@@H]3C6)cc1
Ki [1]: 0.34 nM | Ki [2]: 4 nM | Ki [3]: 1.5 nM | Ke [4]: 0.3 nM | Activity [12]: Antagonist | Activity ([13]; filed as antagonist): Antagonist | Activity [14]: Antagonist | ED50 [5]: > 30 mg/kg | inhibition in vivo at 1 mg/kg [15]: 57% | AD50 [16]: 0.6 mg/kg | Ke [10]: 2.2 nM | Ke [11]: 4.1 nM

O=C(/C=C/c1ccc(Cl)cc1)N[C@@]12CCC(=O)[C@@H]3Oc4c(O)ccc5c4[C@@]31CCN(CC1CC1)[C@@H]2C5 [CLOCINNAMOX]
Ki [1]: 2.98 nM | Ki [2]: 2.7 nM | Ki [3]: 1.4 nM | Ke [4]: 0.53 nM | ED50 [5]: > 30 mg/kg | inhibition in vivo at 30 mg/kg [17]: 69% | AD50 [16]: 0.12 mg/kg | Activity [8]: 0% | Activity [9]: >90% | Ke [10]: 0.19 nM | Ke [11]: 0.1 nM

O=C(/C=C/c1ccccc1)N[C@@]12CCC(=O)[C@@H]3Oc4c(O)ccc5c4[C@@]31CCN(CC1CC1)[C@@H]2C5
ED50 [5]: > 30 mg/kg | inhibition in vivo at 0.3 mg/kg [18]: 66% | AD50 [16]: 1.3 mg/kg | Activity [8]: 0% | Activity [9]: 40%

COc1ccc2c3c1O[C@H]1C(=O)CC[C@@]4(NC(=O)/C=C/c5ccc(C)cc5)[C@@H](C2)N(CC2CC2)CC[C@]314
ED50 [5]: > 30 mg/kg | ED50 [6]: 0.1 mg/kg | AD50 [16]: 5.7 mg/kg | Activity [8]: 10% | Activity [9]: 40%

COc1ccc2c3c1O[C@H]1C(=O)CC[C@@]4(NC(=O)/C=C/c5ccc([N+](=O)[O-])cc5)[C@@H](C2)N(CC2CC2)CC[C@]314
Activity [19]: >90% | Activity [9]: 40%

COc1ccc2c3c1O[C@H]1C(=O)CC[C@@]4(NC(=O)/C=C/c5ccc(Cl)cc5)[C@@H](C2)N(CC2CC2)CC[C@]314
Ki [2]: 4.8 nM | ED50 [5]: > 30 mg/kg | ED50 [6]: 0.2 mg/kg | AD50 [16]: >6 mg/kg | Activity [8]: 0% | Activity [9]: 65% | Ke [10]: 7.2 nM

COc1ccc2c3c1O[C@H]1C(=O)CC[C@@]4(NC(=O)/C=C/c5ccccc5Cl)[C@@H](C2)N(C)CC[C@]314
Ki [1]: 0.68 nM | Ki [2]: 0.58 nM | Ki [3]: 2.5 nM | EC50 [20]: 0.5 nM | EC50 [21]: 2.2 nM | Activity [22]: 110% | EC50 [23]: 8.5 nM

COc1ccc2c3c1O[C@H]1C(=O)CC[C@@]4(NC(=O)/C=C/c5ccccc5)[C@@H](C2)N(CC2CC2)CC[C@]314
Activity [8]: 40% | Activity [9]: 65%

CN1CC[C@]23c4c5cccc4O[C@H]2C(=O)CC[C@@]3(NC(=O)/C=C/c2ccccc2Cl)[C@H]1C5
EC50 [20]: 0.04 nM | EC50 [21]: 0.1 nM | EC50 [23]: 0.1 nM | ED50 [5]: 0.12 mg/kg | ED50 [6]: 0.04 mg/kg | AD50 [16]: >30 mg/kg

COc1ccc2c3c1O[C@H]1C(=O)CC[C@@]4(NC(=O)/C=C/c5ccccc5C)[C@@H](C2)N(CC2CC2)CC[C@]314
Ki [24]: 0.2 nM | Ki [25]: 2.1 nM | EC50 [20]: 2.6 nM | EC50 [21]: 20.9 nM | Activity [22]: 39% | EC50 [23]: 1.8 nM | ED50 [5]: 0.03 mg/kg | ED50 [6]: 0.03 mg/kg | AD50 [16]: >30 mg/kg | Activity [26]: >90% | Activity [9]: 10%

COc1ccc2c3c1O[C@H]1C(=O)CC[C@@]4(NC(=O)/C=C/c5ccc(Cl)cc5)[C@@H](C2)N(C)CC[C@]314
Ki [1]: 0.6 nM | Ki [2]: 1 nM | EC50 [20]: 0.9 nM | EC50 [21]: 5 nM | Activity [22]: 50% | ED50 [5]: 0.04 mg/kg | ED50 [6]: 0.02 mg/kg | AD50 [16]: >30 mg/kg

Cc1ccccc1/C=C/C(=O)N[C@@]12CCC(=O)[C@@H]3Oc4c(O)ccc5c4[C@@]31CCN(C)[C@@H]2C5
Ki [1]: 0.21 nM | Ki [2]: 0.11 nM | Ki [3]: 0.23 nM | EC50 [20]: 0.04 nM | EC50 [21]: 0.4 nM | Activity [22]: 71% | EC50 [23]: 0.2 nM | ED50 [5]: 0.08 mg/kg | ED50 [6]: 0.03 mg/kg | AD50 [16]: >30 mg/kg

COc1ccc2c3c1O[C@H]1C(=O)CC[C@@]4(NC(=O)/C=C/c5ccccc5Cl)[C@@H](C2)N(CC2CC2)CC[C@]314
Ki [24]: 0.6 nM | Ki [25]: 2.4 nM | EC50 [20]: 3.8 nM | EC50 [21]: 17.5 nM | Activity [22]: 36% | EC50 [23]: 9 nM | Activity [19]: >90% | Activity [9]: 10%

CN1CC[C@]23c4c5ccc(O)c4O[C@H]2C(=O)C=C[C@@]3(NC(=O)/C=C/c2ccc(Cl)cc2)[C@H]1C5
ED50 [5]: 0.5 mg/kg | AD50 [16]: >30 mg/kg

CN1CC[C@]23c4c5ccc(O)c4O[C@H]2C(=O)CC[C@@]3(NC(=O)/C=C/c2ccc([N+](=O)[O-])cc2)[C@H]1C5
Ki [1]: 0.2 nM | Ki [2]: 0.54 nM | Ki [3]: 5.5 nM | Ke [4]: 0.13 nM | Ke [10]: 1.4 nM | Ke [11]: 3.3 nM

Cc1ccc(CCC(=O)N[C@@]23CCC(=O)[C@@H]4Oc5c(O)ccc6c5[C@@]42CCN(C)[C@@H]3C6)cc1
Ki [1]: 0.35 nM | Ki [2]: 1.25 nM | Ki [3]: 0.57 nM | Ke [4]: 0.32 nM | Activity [12]: Antagonist | Activity ([13]; filed as partial agonist): Partial agonist | Activity [14]: Antagonist | ED50 [5]: 0.5 mg/kg | ED50 [6]: 0.09 mg/kg | AD50 [16]: >30 mg/kg | Ke ([10]; filed as partial agonist): Partial agonist | Ke [11]: 4.9 nM

O=C(/C=C/c1ccc([N+](=O)[O-])cc1)N[C@@]12CCC(=O)[C@@H]3Oc4c(O)ccc5c4[C@@]31CCN(CC1CC1)[C@@H]2C5
Activity [8]: 40% | Activity [9]: >90%

COc1ccc2c3c1O[C@H]1C(=O)CC[C@@]4(NC(=O)/C=C/c5ccccc5C)[C@@H](C2)N(C)CC[C@]314
Ki [1]: 0.4 nM | Ki [2]: 0.42 nM | Ki [3]: 2.3 nM | EC50 [20]: 0.5 nM | EC50 [21]: 4.6 nM | Activity [22]: 108% | EC50 [23]: 5.6 nM

COc1ccc2c3c1O[C@H]1C(=O)CC[C@@]4(NC(=O)/C=C/c5ccccc5[N+](=O)[O-])[C@@H](C2)N(CC2CC2)CC[C@]314
Activity [8]: 40%

COc1ccc2c3c1O[C@H]1C(=O)CC[C@@]4(NC(=O)/C=C/c5ccc(C)cc5)[C@@H](C2)N(C)CC[C@]314
Ki [1]: 0.49 nM | Ki [2]: 2.9 nM | Ki [3]: 9.9 nM | EC50 [20]: 2.5 nM | EC50 [21]: 76 nM | Activity [22]: 86% | EC50 [23]: 84 nM | ED50 [5]: 0.06 mg/kg | ED50 [6]: 0.4 mg/kg | AD50 [16]: >30 mg/kg

O=C(/C=C/c1ccccc1Cl)N[C@@]12CCC(=O)[C@@H]3Oc4c(O)ccc5c4[C@@]31CCN(CC1CC1)[C@@H]2C5
Ki [1]: 0.71 nM | Ki [2]: 1.3 nM | Ki [3]: 2.4 nM | Ke [4]: 0.45 nM | Activity [8]: 0% | Activity [9]: 65% | Ke [10]: 0.67 nM | Ke [11]: 0.38 nM
